We go through 85 compounds from a melting point compilation (Tetko et al.; mined from patent text by program, amines drawn as free bases though some values may be those of a salt).

SMILES strings stand for the structures.

One may read the melting point as the temperature of the solid-liquid transition.

On to `Cc1c(C)c2c(c(C)c1O)C(c1ccc(N3CCOCC3)cc1)C(C)(C)O2` (stereo not given), for which the melting point was in the range of 91 to 93 °C. `Cc1ccnc(C(=O)c2[nH]c3cc(Cl)c(F)cc3c2CC(=O)O)c1` returned a melting point of 220 °C. Next, `Nc1ccc(-c2nc(Cc3ccccc3)no2)cc1Br`: 144 to 145 °C; `Clc1cc(Cl)c2c(CCBr)coc2c1`: 43 °C. `Oc1ccc2c(c1)C(Cc1ccnc(F)c1)(Cc1ccnc(F)c1)c1ccccc1-2` registered a melting point of 200 to 201 °C. Next, `CSc1ccc(-c2nn(Cc3ccccc3)c(=S)cc2-c2ccc(Cl)cc2)cc1`: 103 °C; `CC(=O)c1cc(F)ccc1Oc1nc2ccc(Br)cc2cc1Cc1ccccc1`: 115 to 117 °C. Next, `c1cn(Cc2ccc3[nH]c(C4CC4)nc3c2)cn1`: 184 °C; `COc1cc(Cc2nc(NC(C)(C)C)c3c(C)c(C#N)sc3n2)cc(OC)c1OC`: 146 to 148 °C. In the case of `O=S1(=O)N=CN(C2CCCCC2)c2ccc(Cl)cc21`, the melting point lay in the range of 209 to 211 °C. Next, `CC1CCN(c2cc(F)cc(C(=O)Nc3ccc(OCCN4CCOCC4)c4ccccc34)c2)CC1`: 116 to 118 °C; `Cc1cc2c(cc1Sc1ccc(C(=O)O)c(Cl)c1)C(C)(C)CCC2(C)C`: 202 to 205 °C. Next, `O=C(CCN1CCCCC1)Nc1ccc2[nH]c3ccc(NC(=O)CCN4CCCCC4)cc3c(=O)c2c1`: more than 320 °C; `O=C(CN1C(=O)c2ccccc2C1=O)Nc1ccccc1OC(F)(F)F`: 192 °C. Next, `CCCCN1CC=C(c2cccc3[nH]ccc23)CC1`: 91 °C; `O=C1CC([N+](=O)[O-])([N+](=O)[O-])CO1`: 100 to 102 °C; `CC(=O)c1cc2c(s1)SCCN(CCCCCl)C2=O`: 132 to 134 °C.

`COC(=O)C(=O)c1ccc(SC)c(Cl)c1` registered a melting point of 67.9 to 70.2 °C.

`CSCCC(=O)NCc1cccc(-c2nc(=O)c3ccccc3s2)n1` had a melting point of 192 to 193 °C. Next, `CC(=O)c1ccc(-c2ccccc2[N+](=O)[O-])cc1`: 106 to 109 °C; `COc1ccc(Cn2nc(-c3ccc(C(=O)N4Cc5cccnc5Nc5ccccc54)c(Cl)c3)nc2C)cc1`: 218 to 221 °C; `COc1ccc(N(C(=O)CN2C(=O)C(Cc3cc(C)nn3Cc3ccccc3)C(=O)N(c3ccccc3)c3ccccc32)C(C)C)cc1` (stereo not given): 117 to 120 °C. Next, `Cc1nc2c(O)c(C(=O)[C@H](O)[C@@H](O)c3ccccc3)ccc2n1C`: 170 °C; `CCOc1ccc(Oc2ccc(CNC(=O)c3sc(C)nc3C)cc2)cc1`: 99 to 101 °C. Turning to `COc1ccc(-n2c(=O)n(O)c(=O)c3cc(F)c(N4CCCC4)cc32)cc1`, the melting point lay in the range of 224 to 226 °C. Next, `O=C1N(Cc2cc3ccccc3o2)c2ccccc2C12COc1cc3c(cc12)OCO3` (stereo not given): 167 to 168 °C; `S=C1CN=C(c2ccccc2)c2ccsc2N1`: 208 to 210 °C; `O=C(Nc1ccccc1S(=O)(=O)c1ccccc1)N[C@@H](Cc1ccc(Oc2nccc3ccncc23)cc1)C(=O)O`: 164 °C.

In turn, `CCCn1nc2c(N)nc3ccccc3c2c1CC(C)(C)NC(=O)CC` had a melting point of 158 to 159 °C. Next, `CC(=O)N(O)C(C)c1ccc(C#Cc2cccs2)cc1` (stereo not given): 128 to 129 °C; `COc1ccc2nc3c(cc2c1)c(C#N)nn3C`: 190 to 191 °C. Next, `CCOc1nc(OCC)nc(N2CCN(C=O)CC2)n1`: 106 to 108 °C. Next, `Cc1cccc(NC(=O)NCC(=O)N(CC(=O)N(C)c2ccc(Cl)cc2)c2ccccc2)c1`: 160 °C. As for `Cc1nc(NC(=O)c2cnn3c(C(F)(F)F)cc(-c4ccc(C(F)(F)F)cc4)nc23)sc1S(=O)(=O)NC(C)(C)CO`, the melting point was determined as 257 °C. In the case of `COc1c(C)cc(NC(C)=O)c(Br)c1C`, the melting point fell in the range of 152 to 153 °C. Consider `COC(=O)c1cc(-c2cccc(C(=O)O)c2)c2cc(Cc3ccc(F)cc3)cnc2c1O`, for which the melting point lay within 265 to 267 °C.

In turn, `CC1(C)c2ccc(C(O)CN3CCN(c4nsc5ccccc45)CC3)cc2C(C)(C)C1O` (stereo not given) came in with a melting point of 88 to 97 °C. `COc1ccccc1CP(C)(=O)C1CCCCC1` (stereo not given) displayed a melting point of 108 to 110 °C.

Take `CC1=C(C2C=CN(C(=O)OCC(Cl)(Cl)Cl)C=C2)SC(C)C(=O)N1` (stereo not given): the melting point lay in the range of 140 to 142 °C. Next, `O=C(O)Cc1ccc(NC(=O)C(COc2ccc(Cl)cc2)NS(=O)(=O)c2ccc(I)cc2)cc1` (racemic): 196 to 198 °C; `Cc1cc(C)c2nc(C)n(Cc3ccc(NCC4CCN(C5CCOCC5)CC4)cc3)c2n1`: 148 to 150 °C. The compound `COC(=O)COc1cccc(NC(=O)c2cc(-c3cccc(F)c3)ccc2F)c1` registered a melting point of 103 to 104 °C.

For the compound `N#Cc1cc(=O)cc(-c2ccccc2)o1`, the melting point was in the range of 146 to 149 °C. Regarding `Cc1ccc(Cc2cnc(NCCCNc3ncccc3Cl)[nH]c2=O)cn1`, the melting point was in the range of 91 to 94 °C. Next, `COc1nc(N)cc2cccnc12`: 178 to 180 °C; `C=CC(=O)NC(C)(C)c1ccc(CC(=O)OCCC)cc1`: 71 to 72 °C; `CCN1C(=O)C(=C2C=C(N3CCCC3)CC(C)(C)C2)SC1=S`: 234 to 235 °C. Next, `CN1N=C2C(=Cc3ccccc3)CN(C(N)=O)CC2C1c1ccccc1` (stereo not given): 191 to 193 °C. Next, `O=C(O)c1cc(F)c(F)c(Br)c1Cl`: 138 to 140 °C; `CCCc1c(OCCCCCOc2ccc(CCCCC(=O)O)cc2CCC(=O)O)ccc2c1OCCC2=O`: 101 to 104 °C. `COc1cc2nc(N)nc(-c3ccc(O)c(F)c3)c2cc1OC` returned a melting point of 268 to 270 °C.

`N#CN=c1ncccn1Cc1ccc(Cl)nc1` returned a melting point of 218 to 220 °C. Next, `CCCCC(CCCC)C(=O)O[C@H]1C[C@H](O)C=C2C=C[C@H](C)[C@H](CC[C@@H]3C[C@@H](O)CC(=O)O3)[C@H]21`: 143 to 145 °C; `CC(=O)c1c(C)nc(C)nc1NCc1ccc(Br)cc1`: 78 to 80 °C. The compound `O=C(Oc1cccc(Cl)c1)c1ncn2c1[C@@H]1CCCN1C(=O)c1c(Cl)cccc1-2` came in with a melting point of 194 to 195 °C. Next, `CN(C)CCCN1c2ccccc2N(C)C(=O)c2cccnc21`: 98.5 to 100 °C.

In turn, `COC(=O)COc1c(C)cc(SCc2ccc(-c3ccc(C(F)(F)F)cn3)cc2)c2c1CCCO2` registered a melting point of 156 to 157 °C.

Consider `C=C(Cn1ccnc1)c1ccccc1OCc1ccc(Cl)cc1Cl`, for which the melting point was 84 to 86 °C. Next, `CCOC(=O)CCc1cc(O)nn1-c1ccccc1`: 150 to 151 °C. Next, `Cc1oc(-c2ccccc2)nc1CCOc1ccc(Cn2cc(CC(=O)O)c(-c3ccccc3)n2)cn1`: 148 to 149 °C; `CN(CCCCCNC(=NCCSCc1csc(NC(=N)N)n1)NC#N)CCC(c1ccc(Cl)cc1)c1ccccn1` (stereo not given): 87 to 90 °C; `CC(C)(C)N(Cc1ccccc1)CC(O)c1ccc(OCc2ccccc2)c(C(O)CO)c1` (stereo not given): 148 to 149 °C. `CCOC(=O)CN1C(=O)C(=C(C)C)SC1=Nc1cc(-n2c(=O)cc(C(F)(F)F)n(C)c2=O)c(F)cc1Cl` returned a melting point of 67 to 80 °C. Next, `Brc1ccc2c(c1)N=C(N1CCN(c3ccccc3)CC1)c1cccc3c1N2CC3`: 171 to 173 °C. Next, `Cc1ccc(C(=O)Nc2ccc(C=O)c(C(F)(F)F)c2)cc1Br`: 194 to 195 °C; `CCN1CC[C@H](NC(=O)c2cc(Cl)c(N)c3c2OCCC3)[C@H](OC)C1` (relative stereo): 154 °C. Next, `O=C1CCc2ccc(OCCCCBr)cc2N1`: 106 to 109 °C; `Cc1cccc(COc2nn3c(-c4ccccc4)nnc3c3ccccc23)n1`: 186 to 187 °C. Compound `N[C@@H](CCC(=O)O)C(=O)N[C@@H](Cc1ccccc1)C(=O)O` gave a melting point of 147 to 149 °C. Next, `O=S(=O)(Cc1ccccc1)N(c1ncc(-c2ccccc2)nc1Cc1ccccc1)S(=O)(=O)Cc1ccccc1`: 71.5 to 74.5 °C; `CC(C)CC1CC(=O)c2cc(CC(=O)O)ccc21` (stereo not given): 140 to 142 °C; `CCCCCCCNC(=O)Nc1ccccc1C(=O)NC1CCN(Cc2c(C(C)C)nc(C(C)C)c(COC)c2-c2ccc(F)cc2)CC1`: 123 °C. The compound `CCC(CC)NC(=O)C[C@@H](C(=O)NC[C@@H](O)[C@@H](N)Cc1ccccc1)C(C)(C)C` showed a melting point of 155 to 158 °C.

For `Cc1ccc(CSc2c(O)cc(-c3ccccc3)oc2=O)cc1`, the melting point lay within 164 to 165 °C. Next, `C=CCc1ccccc1OC[C@@H](O)CNCCc1ccc(NC2CCN(C(=O)NCCCCCCCC)CC2)cc1`: 73 to 80 °C; `CC(C)NC(=O)[C@@H]1CCCN1C(=O)[C@H](C)NC(=O)OCc1ccccc1`: 124 to 126 °C; `O=C(COc1ccccc1)NCCO[N+](=O)[O-]`: 61 to 62 °C. In turn, `O=c1[nH]c(=O)n2c(c1Cc1ccccc1)SCCC2` yielded a melting point of 227 to 229 °C. `C[C@H](CO)NC1=NS(=O)(=O)c2sc(Cl)cc2N1` displayed a melting point of 203 to 204 °C.

As to `COC(=O)C1=C(C)NC(C)=C(C(=O)OCCCCCCCCBr)C1c1cccc([N+](=O)[O-])c1` (stereo not given), the melting point is 115 °C. Turning to `CCCCCCCCCCCCCCCCCCN(CCCCCCCCCCCCCCCCCC)c1ccc(C=Cc2ccc(S(C)(=O)=O)cc2)cc1`, the melting point was in the range of 75 to 76 °C. Next, `CCN(CC)CCN1C(=O)Nc2cnccc2C1c1ccccc1` (stereo not given): 138 to 140 °C; `COc1c(C)c(C)c(OC)c(C(O)(c2ccc(F)cc2)C(C)C)c1C` (stereo not given): 129 to 130 °C; `CCNc1nnc2ccc(-c3cccc(N(C)C(C)=O)c3)nn12`: 225 to 227 °C. Next, `CC(C)n1c(C=O)c(-c2ccc(F)cc2)c(-c2ccccc2)c1C(=O)O`: 219 to 220 °C.
